Assays:
[1] = molecular target: T1, Cannabinoid CB1 Receptor (Homo sapiens, UniProt P21554); test: Binding assay, cannabinoid CB1 receptor ([3H]-CP-55,940 displacement, SK-N-MC cell membranes); conditions: for inhibition at 0.2 µM: test concentration of 0.2 μM, human CB1 in SK-N-MC membranes, read-out: Cannabinoid CB1 Receptor Binding, percent inhibition
T1 construct: expressed in transfected cells; semi-purified membrane pellet
Experimental: (§1) Binding Assay for CB1 or CB2 Agonists or Inverse Agonists
(§2) The human CB1 and CB2 receptors were stably expressed in SK-N-MC cells transfected with pcDNA3 CB-1 (human) or pcDNA3 CB-2 (human). The cells were grown in T-180 cell culture flasks under standard cell culture conditions at 37° C. in a 5% CO2 atmosphere. The cells were harvested by trysinization and homogenized in a homogenization buffer (10 mM Tris, 0.2 mM MgCl2, 5 mM KCl, with protease inhibitors aprotinin, leupeptin, pepstatin A and bacitracin) and centrifuged (2000 g). The supernatant was then centrifuged in 2M sucrose (31,300 g) to produce a semi-purified membrane pellet. The pellet was resuspended in homogenization and store at −80° C.
On the day of the assay, the pellet was thawed on ice and diluted in assay buffer (50 mM Tris-HCl, 5 mM MgCl2, 2.5 mM EDTA, 0.5 mg/mL fatty acid free bovine serum albumin, pH 7.5). […] The plate was covered and incubated for 90 minutes at 30° C. The contents were then aspirated onto a Packard Unifilter GF/C filter bottom plate prewet with 0.5% polyethyleneimine. The wells of the polypropylene plate were rinsed and aspirated seven times with a 0.9% saline-0.5% Tween 20 solution. The Unifilter plate was dried, a scintillation cocktail was added to each well and the counts representing binding were quantitated in a TopCount scintillation counter.
(§3) For compounds tested, an IC50 binding value was obtained from percent inhibition studies in which various test concentrations were used. The binding value (in μM) was calculated by linear regression.

[2] = molecular target: T2, Cannabinoid CB2 Receptor (Homo sapiens, UniProt P34972); test: Binding assay, cannabinoid CB2 receptor ([3H]-CP-55,940 displacement, SK-N-MC cell membranes); conditions: test concentration of 0.2 μM; human CB2 in SK-N-MC membranes; read-out: Cannabinoid CB2 Receptor Binding, percent inhibition
T2 construct: expressed in transfected cells; semi-purified membrane pellet
T2 sequence (P34972 whole entry): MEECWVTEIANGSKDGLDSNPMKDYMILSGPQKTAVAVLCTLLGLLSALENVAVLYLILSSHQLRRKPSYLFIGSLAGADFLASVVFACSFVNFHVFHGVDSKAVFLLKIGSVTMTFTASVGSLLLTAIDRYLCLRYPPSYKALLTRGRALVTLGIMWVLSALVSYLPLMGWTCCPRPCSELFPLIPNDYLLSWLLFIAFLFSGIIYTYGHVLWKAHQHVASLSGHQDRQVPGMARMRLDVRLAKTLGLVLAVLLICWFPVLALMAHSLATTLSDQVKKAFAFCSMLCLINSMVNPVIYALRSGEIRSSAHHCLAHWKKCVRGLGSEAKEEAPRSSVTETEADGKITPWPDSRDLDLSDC
Experimental: as §1, §2
On the day of the assay, the pellet was thawed on ice and diluted in assay buffer (50 mM Tris-HCl, 5 mM MgCl2, 2.5 mM EDTA, 0.5 mg/mL fatty acid free bovine serum albumin, pH 7.5). The diluted membrane was added with buffer, test compound or standard and the radioligand [H]^3+-CP-55,940 (0.2 nM) to the wells of a 96-well polypropylene plate. Non-specific binding was measured in wells containing 10 uM WIN 55,212. The plate was covered and incubated for 90 minutes at 30° C. The contents were then aspirated onto a Packard Unifilter GF/C filter bottom plate prewet with 0.5% polyethyleneimine. The wells of the polypropylene plate were rinsed and aspirated seven times with a 0.9% saline-0.5% Tween 20 solution. The Unifilter plate was dried, a scintillation cocktail was added to each well and the counts representing binding were quantitated in a TopCount scintillation counter.
as §3, with “regression. For compounds without an IC50 binding value, the percent inhibition (in %) was obtained at a test concentration of 0.2 μM.” for “regression.”

T1 sequence (P21554 whole entry): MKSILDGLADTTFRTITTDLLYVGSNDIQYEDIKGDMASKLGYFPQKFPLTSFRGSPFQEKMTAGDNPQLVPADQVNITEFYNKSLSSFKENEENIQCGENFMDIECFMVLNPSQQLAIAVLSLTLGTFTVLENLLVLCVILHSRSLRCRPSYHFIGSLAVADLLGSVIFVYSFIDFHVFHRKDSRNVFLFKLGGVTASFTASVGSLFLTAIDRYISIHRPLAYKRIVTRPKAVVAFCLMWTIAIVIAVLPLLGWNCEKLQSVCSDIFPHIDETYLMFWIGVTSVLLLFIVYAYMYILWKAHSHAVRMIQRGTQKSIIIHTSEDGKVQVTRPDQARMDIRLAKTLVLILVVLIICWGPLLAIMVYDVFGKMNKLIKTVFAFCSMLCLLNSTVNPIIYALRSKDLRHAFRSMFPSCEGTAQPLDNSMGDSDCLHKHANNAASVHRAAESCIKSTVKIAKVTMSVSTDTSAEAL

Structure (SMILES)	inhibition at 0.2 µM [1] [%]	inhibition at 0.2 µM [2] [%]	IC50 [1] [nM]
O=C(c1nn(-c2ccc(Cl)cc2Cl)c2c1COC/C2=C\c1ccc(F)cc1)N1CCC[C@H]1CO [Cpd 21, (7Z)-[1-(2,4-dichloro-phenyl)-7-(4-fluoro-benzylidene)-1,4,6,7-tetrahydro-pyrano[4,3-c]pyrazol-3-yl]-[(2S)-2-hydroxymethyl-pyrrolidin-1-yl]-methanone]	59	15	
O=C(NN1CC2CCCC2C1)c1nn(-c2ccc(Cl)cc2Cl)c2c1COCC2Cc1ccc(F)cc1 (stereo not shown) [Cpd 22, 1-(2,4-dichloro-phenyl)-7-(4-fluoro-benzyl)-1,4,6,7-tetrahydro-pyrano[4,3-c]pyrazole-3-carboxylic acid (hexahydro-cyclopenta[c]pyrrol-2-yl)-amide]	66	18	
O=C(NN1CCCCC1)c1nn(-c2ccc(Cl)cc2Cl)c2c1COCC2Cc1ccc(F)cc1 (stereo not shown) [Cpd 23, 1-(2,4-dichloro-phenyl)-7-(4-fluoro-benzyl)-1,4,6,7-tetrahydro-pyrano[4,3-c]pyrazole-3-carboxylic acid piperidin-1-ylamide]	59	19	
C[C@@H](NC(=O)c1nn(-c2ccc(Cl)cc2Cl)c2c1COCC2Cc1ccc(F)cc1)c1ccccc1 (stereo partly drawn) [Cpd 24, 1-(2,4-dichloro-phenyl)-7-(4-fluoro-benzyl)-1,4,6,7-tetrahydro-pyrano[4,3-c]pyrazole-3-carboxylic acid [(R)-1-phenyl-ethyl]-amide]	66	13	
CN1CCN(NC(=O)c2nn(-c3ccc(Cl)cc3Cl)c3c2COCC3Cc2ccc(F)cc2)CC1 (stereo not shown) [Cpd 26, 1-(2,4-dichloro-phenyl)-7-(4-fluoro-benzyl)-1,4,6,7-tetrahydro-pyrano[4,3-c]pyrazole-3-carboxylic acid (4-methyl-piperazin-1-yl)-amide]	8	13	
CC1CCCC(C)N1NC(=O)c1nn(-c2ccc(Cl)cc2Cl)c2c1COC/C2=C\c1ccc(F)cc1 (stereo not shown) [Cpd 27, (7Z)-1-(2,4-dichloro-phenyl)-7-(4-fluoro-benzylidene)-1,4,6,7-tetrahydro-pyrano[4,3-c]pyrazole-3-carboxylic acid (2,6-dimethyl-piperidin-1-yl)-amide]	77	20	40
O=C(NNC1CCCCC1)c1nn(-c2ccc(Cl)cc2Cl)c2c1COC/C2=C\c1ccc(F)cc1 [Cpd 29, (7Z)-1-(2,4-dichloro-phenyl)-7-(4-fluoro-benzylidene)-1,4,6,7-tetrahydro-pyrano[4,3-c]pyrazole-3-carboxylic acid N′-cyclohexyl-hydrazide]	52	0	
CN1CCN(NC(=O)c2nn(-c3ccc(Cl)cc3Cl)c3c2COC/C3=C\c2ccc(F)cc2)CC1 [Cpd 30, (7Z)-1-(2,4-dichloro-phenyl)-7-(4-fluoro-benzylidene)-1,4,6,7-tetrahydro-pyrano[4,3-c]pyrazole-3-carboxylic acid (4-methyl-piperazin-1-yl)-amide]	3	0	
O=C(NN1CCN(CCO)CC1)c1nn(-c2ccc(Cl)cc2Cl)c2c1COC/C2=C\c1ccc(F)cc1 [Cpd 31, (7Z)-1-(2,4-dichloro-phenyl)-7-(4-fluoro-benzylidene)-1,4,6,7-tetrahydro-pyrano[4,3-c]pyrazole-3-carboxylic acid [4-(2-hydroxy-ethyl)-piperazin-1-yl]-amide]	10	15	
C[C@@H](NC(=O)c1nn(-c2ccc(Cl)cc2Cl)c2c1COC/C2=C\c1cccs1)c1ccccc1 [Cpd 32, (7Z)-1-(2,4-dichloro-phenyl)-7-thiophen-2-ylmethylene-1,4,6,7-tetrahydro-pyrano[4,3-c]pyrazole-3-carboxylic acid [(R)-1-phenyl-ethyl]-amide]	76	11	20

From patent US20100069341A1, “TETRAHYDRO-PYRANOPYRAZOLE CANNABINOID MODULATORS” (priority 2005, published 2010)
